How the values were obtained:
Assay type in all cases: cell-based
[1] = target: T1, CXCR5 (Homo sapiens, UniProt P32302); assay: Chemotaxis assay (Transwell, CXCL13 dose-response, 300.19 cells expressing CXCR5); conditions: 300.19 cells incubated with compound, compared to the vehicle control
T1 sequence (P32302 1-372): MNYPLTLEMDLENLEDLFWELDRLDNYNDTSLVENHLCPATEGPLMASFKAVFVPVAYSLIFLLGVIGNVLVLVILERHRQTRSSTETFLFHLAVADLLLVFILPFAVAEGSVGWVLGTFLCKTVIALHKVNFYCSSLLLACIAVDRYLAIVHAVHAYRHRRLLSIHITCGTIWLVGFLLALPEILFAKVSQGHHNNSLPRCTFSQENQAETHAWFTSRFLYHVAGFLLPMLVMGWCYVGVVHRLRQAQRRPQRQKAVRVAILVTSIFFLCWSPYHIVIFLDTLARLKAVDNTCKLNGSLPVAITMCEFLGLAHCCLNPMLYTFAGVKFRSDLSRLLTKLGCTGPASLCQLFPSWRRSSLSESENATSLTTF
Description: Chemotaxis assays were utilized to determine the effect of compound on the directed migration of cells in response to chemokine. 300.19 cells that express CXCR5 were placed in the upper chamber of a Transwell chemotaxis plate (Corning) and allowed to migrate through a polycarbonate membrane to a lower chamber containing the appropriate receptor-specific ligand. To test for antagonist or potentiating activity, cells were mixed with the desired concentration of compound prior to addition to the upper chamber. Conversely, agonist activity was determined by adding compound in the bottom chamber only without endogenous chemokine. The effect of compound is quantified by several parameters, including the extent of maximum response, the shift of agonist dose-response curves, and the area under the curve. […]
To initiate cell migration, the assembled transwell plate was placed in a 37° C., […] incubator for a specified time interval, typically between 30 and 120 minutes. […] To quantify migrated cells, plates were thawed at 37° C. in a humidified chamber, and then a sample volume was removed from each well and mixed with an equal volume of CyQuant (Invitrogen) working solution in opaque plates. The fluorescence intensity of each well represents the DNA content and is directly proportional to cell number. […]

[2] = target: T1, CXCR5; assay: β-arrestin assay (DiscoverX eXpress β-arrestin cells expressing CXCR5)
Description: The β-arrestin assays developed by DiscoverX employed herein detect binding of a ligand to the GPCR by directly measuring β-arrestin recruitment to the GPCR independent of G-protein coupling. In this system, β-arrestin is fused to an N-terminal deletion mutant of β-gal (termed the enzyme acceptor of EA) and the GPCR of interest is fused to a smaller (42 amino acids), weakly complementing fragment. In cells that stably express these fusion proteins, ligand stimulation results in the interaction of β-arrestin and the tagged GPCR, forcing the complementation of the two β-gal fragments and resulting in the formation of a functional enzyme that converts substrate to detectable signal. In practice, eXpress β-arrestin cells expressing the receptor of interest are incubated with either compound alone (agonist mode), or compound plus native ligand (allosteric mode). A chemiluminescent substrate is then added to determine the extent of enzyme activity, and by inference, arrestin recruitment to GPCR.
The β-arrestin assays for CXCR5 Compound 14 were run in both agonist and allosteric modes. In agonist mode, the CXCR5-expressing eXpress β-arrestin cells were incubated with a dose curve of CXCR5 Compound 14 in the absence of CXCL13. […] In allosteric mode, Compound 14 is co-incubated with CXCL13, and the CXCR5 response of the eXpress cells is quantified.

[3] = target: T1, CXCR5; assay: HTRF cAMP assay, inhibition of forskolin-stimulated cAMP production in HEK293 cells expressing hCXCR5; design: expressed in transfected cells; host or cells: HEK293; conditions: HEK293 cells expressing hCXCR5, 2 doses of compound (3 uM, 0.3 uM)
Description: HTRF (homogeneous time resolved fluorescence) is a technology developed by Cisbio Bioassays based on TR-FRET (time-resolved fluorescence resonance energy transfer). Cisbio Bioassays has developed a wide selection of HTRF-based assays compatible with whole cells, thereby enabling functional assays run under more physiological conditions. cAMP kits are based on a competitive immunoassay using cryptate-labeled anti-cAMP antibody and d2-labeled cAMP. This assay allows the measurement of increase in intracellular cAMP upon Gs-coupled receptor activation as well as decrease in forskolin stimulated increase in cAMP upon Gi-coupled receptor activation. The IP-One assays are competitive immunoassays that use cryptate-labeled anti-IP1 monoclonal antibody and d2-labeled IP1. IP1 is a relatively stable downstream metabolite of IP3, and accumulates in cells following Gq receptor activation.
A cAMP assay was performed in the presence of Compound 14 to assess the activation of CXCR5 by the production of cAMP. HEK293 cells expressing hCXCR5 were incubated with CXCL13, and the inhibition of forskolin-stimulated cAMP production was quantified in cells in the absence and presence of Compound 14. […] This response is indicative of a reduction of decrease in forskolin-stimulated cAMP due to enhanced CXCR5 (Gi) activation.

shift of the bell-shaped ligand dose-response curve (chemotaxis) ([1]; CXCL13 dose-response): leftward shift
AUC of the bell-shaped ligand dose-response curve (chemotaxis) [1]: increase
β-arrestin recruitment response, agonist mode ([2]; dose curve of compound in the absence of CXCL13): lack of response
Substance: Pal-HAVHAYRHRRLLS-amide [Compound 14]
β-arrestin recruitment response curve, allosteric mode ([2]; compound co-incubated with CXCL13): left-shifted and higher maximal response curve
shift of cAMP responses to CXCL13 (inhibition of forskolin-stimulated cAMP production) [3]: shifted leftward in a dose-dependent manner

— patent publication US20110300167A1, “CXCR5 RECEPTOR COMPOUNDS” (priority 2008, published 2011)
